Experiment: pKa of the azo dye
Assay type: physicochemical
Conditions: assumes blue color by proton dissociation
Source text: The liquid hair dye composition of the present invention contain, as component (A), an azo dye represented by Formula (A-2) below (HC Blue 18). The pKa of the azo dye (A-2) is 6.0, and assumes blue color by proton dissociation.

- pKa: 6
Compound: NS(=O)(=O)c1ccc2nsc(N=Nc3ccc(O)c(Cl)c3)c2c1 [Example A-2, HC Blue 18]
